In the NIST ThermoML archive (doi:10.1021/je201014c):
± gives the expanded uncertainty stated by the source.

Assay: mn = molality of the nth substance listed, in mol/kg
Settings: 100 kPa, Liquid, Alternating current cell with electrodes

CCCCn1cc[n+](C)c1.F[B-](F)(F)F [1-butyl-3-methylimidazolium tetrafluoroborate] + CN(C)C=O
Settings | molar conductivity [S·m2/mol]
283.15 K, m1 = 5.542e-05 | 0.007204 ± 2e-05
283.15 K, m1 = 0.0002915 | 0.00709 ± 2e-05
283.15 K, m1 = 0.0004895 | 0.007031 ± 2e-05
283.15 K, m1 = 0.0006942 | 0.006981 ± 2e-05
283.15 K, m1 = 0.001153 | 0.006893 ± 2e-05
283.15 K, m1 = 0.001938 | 0.006777 ± 2e-05
283.15 K, m1 = 0.002927 | 0.006662 ± 2e-05
283.15 K, m1 = 0.003888 | 0.00657 ± 2e-05
283.15 K, m1 = 0.005903 | 0.006415 ± 2e-05
283.15 K, m1 = 0.008004 | 0.006288 ± 2e-05
283.15 K, m1 = 0.009964 | 0.006189 ± 2e-05
283.15 K, m1 = 0.012 | 0.0061 ± 2e-05
283.15 K, m1 = 0.01485 | 0.00599 ± 2e-05
288.15 K, m1 = 0.0001289 | 0.007713 ± 2e-05
288.15 K, m1 = 0.0002628 | 0.007644 ± 2e-05
288.15 K, m1 = 0.000427 | 0.007581 ± 2e-05
288.15 K, m1 = 0.0006069 | 0.007526 ± 2e-05
288.15 K, m1 = 0.001022 | 0.007427 ± 2e-05
288.15 K, m1 = 0.001697 | 0.007306 ± 2e-05
288.15 K, m1 = 0.002546 | 0.007188 ± 2e-05
288.15 K, m1 = 0.003454 | 0.007086 ± 2e-05
288.15 K, m1 = 0.005179 | 0.006929 ± 2e-05
288.15 K, m1 = 0.007043 | 0.006794 ± 2e-05
288.15 K, m1 = 0.008772 | 0.006689 ± 2e-05
288.15 K, m1 = 0.01186 | 0.006533 ± 2e-05
288.15 K, m1 = 0.01492 | 0.006408 ± 2e-05
293.15 K, m1 = 0.000111 | 0.00828 ± 2e-05
293.15 K, m1 = 0.0002943 | 0.008172 ± 2e-05
293.15 K, m1 = 0.0004483 | 0.008108 ± 2e-05
293.15 K, m1 = 0.000694 | 0.008027 ± 2e-05
293.15 K, m1 = 0.001218 | 0.007899 ± 2e-05
293.15 K, m1 = 0.001996 | 0.007759 ± 2e-05
293.15 K, m1 = 0.002935 | 0.007628 ± 2e-05
293.15 K, m1 = 0.003937 | 0.007515 ± 2e-05
293.15 K, m1 = 0.005916 | 0.007336 ± 2e-05
293.15 K, m1 = 0.007933 | 0.00719 ± 2e-05
293.15 K, m1 = 0.01009 | 0.007059 ± 2e-05
293.15 K, m1 = 0.01201 | 0.00696 ± 2e-05
293.15 K, m1 = 0.01495 | 0.006833 ± 2e-05
298.15 K, m1 = 0.0001246 | 0.008822 ± 2e-05
298.15 K, m1 = 0.0003199 | 0.0087 ± 2e-05
298.15 K, m1 = 0.000527 | 0.008612 ± 2e-05
298.15 K, m1 = 0.000691 | 0.008555 ± 2e-05
298.15 K, m1 = 0.001175 | 0.008424 ± 2e-05
298.15 K, m1 = 0.001926 | 0.008273 ± 2e-05
298.15 K, m1 = 0.002929 | 0.008121 ± 2e-05
298.15 K, m1 = 0.003956 | 0.007996 ± 2e-05
298.15 K, m1 = 0.005953 | 0.007802 ± 2e-05
298.15 K, m1 = 0.008044 | 0.00764 ± 2e-05
298.15 K, m1 = 0.009999 | 0.007512 ± 2e-05
298.15 K, m1 = 0.01205 | 0.007397 ± 2e-05
298.15 K, m1 = 0.0149 | 0.007265 ± 2e-05
303.15 K, m1 = 0.0001037 | 0.00939 ± 2e-05
303.15 K, m1 = 0.0002814 | 0.009262 ± 2e-05
303.15 K, m1 = 0.000494 | 0.00916 ± 2e-05
303.15 K, m1 = 0.0007407 | 0.009069 ± 2e-05
303.15 K, m1 = 0.001192 | 0.00894 ± 2e-05
303.15 K, m1 = 0.001886 | 0.00879 ± 2e-05
303.15 K, m1 = 0.002913 | 0.008621 ± 2e-05
303.15 K, m1 = 0.003912 | 0.008489 ± 2e-05
303.15 K, m1 = 0.006107 | 0.008261 ± 2e-05
303.15 K, m1 = 0.007974 | 0.008107 ± 2e-05
303.15 K, m1 = 0.009993 | 0.007966 ± 2e-05
303.15 K, m1 = 0.01195 | 0.007849 ± 2e-05
303.15 K, m1 = 0.01492 | 0.007699 ± 2e-05
308.15 K, m1 = 5.763e-05 | 0.009991 ± 2e-05
308.15 K, m1 = 0.0002447 | 0.009826 ± 2e-05
308.15 K, m1 = 0.0004495 | 0.009716 ± 2e-05
308.15 K, m1 = 0.0006821 | 0.009621 ± 2e-05
308.15 K, m1 = 0.001183 | 0.009467 ± 2e-05
308.15 K, m1 = 0.001933 | 0.009295 ± 2e-05
308.15 K, m1 = 0.002911 | 0.009124 ± 2e-05
308.15 K, m1 = 0.003919 | 0.008981 ± 2e-05
308.15 K, m1 = 0.005927 | 0.008756 ± 2e-05
308.15 K, m1 = 0.008008 | 0.008573 ± 2e-05
308.15 K, m1 = 0.009997 | 0.008426 ± 2e-05
308.15 K, m1 = 0.01201 | 0.008298 ± 2e-05
308.15 K, m1 = 0.0149 | 0.00814 ± 2e-05
313.15 K, m1 = 9.063e-05 | 0.0105 ± 2e-05
313.15 K, m1 = 0.0002952 | 0.01034 ± 2e-05
313.15 K, m1 = 0.0004868 | 0.01024 ± 2e-05
313.15 K, m1 = 0.0007015 | 0.01015 ± 2e-05
313.15 K, m1 = 0.001177 | 0.009997 ± 2e-05
313.15 K, m1 = 0.001951 | 0.009811 ± 2e-05
313.15 K, m1 = 0.002946 | 0.009626 ± 2e-05
313.15 K, m1 = 0.003906 | 0.009482 ± 2e-05
313.15 K, m1 = 0.005912 | 0.009242 ± 2e-05
313.15 K, m1 = 0.007925 | 0.009053 ± 2e-05
313.15 K, m1 = 0.00996 | 0.008895 ± 2e-05
313.15 K, m1 = 0.01199 | 0.008759 ± 2e-05
313.15 K, m1 = 0.01511 | 0.008574 ± 2e-05
318.15 K, m1 = 9.401e-05 | 0.01103 ± 2e-05
318.15 K, m1 = 0.0002791 | 0.01089 ± 2e-05
318.15 K, m1 = 0.0004526 | 0.01079 ± 2e-05
318.15 K, m1 = 0.0006468 | 0.01071 ± 2e-05
318.15 K, m1 = 0.001144 | 0.01054 ± 2e-05
318.15 K, m1 = 0.001896 | 0.01035 ± 2e-05
318.15 K, m1 = 0.0029 | 0.01015 ± 2e-05
318.15 K, m1 = 0.003892 | 0.009988 ± 2e-05
318.15 K, m1 = 0.005917 | 0.00973 ± 2e-05
318.15 K, m1 = 0.00798 | 0.009527 ± 2e-05
318.15 K, m1 = 0.009945 | 0.009368 ± 2e-05
318.15 K, m1 = 0.01195 | 0.009227 ± 2e-05
318.15 K, m1 = 0.01488 | 0.009038 ± 2e-05
